Data reported in US7449470B2, “Substituted pyrimidines as ligands of adenosine receptors” (Universiteit Leiden, priority 2003, dated 2008).

These molecules were tested against T1, human adenosine A1 receptor (Homo sapiens, UniProt P30542) (assay: Radioligand binding assay, displacement of [3H]DPCPX). Details: CHO cells expressing human adenosine A1 receptors; Ki ± SEM (n = 3); read-out: A1 Ki (displacement of specific [3H]DPCPX binding).
T1 construct: expressed in transfected cells; host or cells: CHO cells
T1 sequence (P30542 1-326): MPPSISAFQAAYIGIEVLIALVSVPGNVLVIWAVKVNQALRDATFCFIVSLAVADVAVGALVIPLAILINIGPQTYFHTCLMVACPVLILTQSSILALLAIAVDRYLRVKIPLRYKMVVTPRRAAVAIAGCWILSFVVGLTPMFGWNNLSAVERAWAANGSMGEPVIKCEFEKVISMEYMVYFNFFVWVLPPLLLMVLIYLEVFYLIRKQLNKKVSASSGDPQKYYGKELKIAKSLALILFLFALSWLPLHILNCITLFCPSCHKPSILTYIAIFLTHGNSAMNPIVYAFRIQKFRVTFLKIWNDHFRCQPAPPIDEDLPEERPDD
Protocol: Radioligand Binding Studies [^3H]DPCPX was purchased from Amersham. All compounds made were tested in radioligand binding assays to determine their affinities at the human adenosine A1 receptor. The affinities at the A1 receptors were determined on CHO cells expressing the human receptors, using [^3H]DPCPX as the radioligand according to a previously described method.^9
Data Analysis Competition binding data were fit to a single-site binding model and plotted using the software package Prism (Graph Pad, San Diego, Calif., USA). The Cheng-Prusoff equation Ki=IC50/(1+[I]/Kd) was used to calculate Ki values, where Ki is the affinity constant for the competing ligand, [I] is the concentration of the free radioligand, and Kd is the affinity constant for the radioligand.

Structure (SMILES)	Ki [nM]
O=C(Nc1cc(-c2ccccc2)nc(-c2ccccc2)n1)c1ccccc1 [Compound 13, N-(2,6-Diphenyl-pyrimidin-4-yl)-benzamide]	671 ± 113
CC(=O)Nc1cc(-c2ccccc2)nc(-c2ccccc2)n1 [Compound 14, N-(2,6-Diphenyl-pyrimidin-4-yl)-acetamide]	37.5 ± 8.1
CCC(=O)Nc1cc(-c2ccccc2)nc(-c2ccccc2)n1 [Compound 15, N-(2,6-Diphenyl-pyrimidin-4-yl)-propionamide]	9.5 ± 4.6
CCCC(=O)Nc1cc(-c2ccccc2)nc(-c2ccccc2)n1 [Compound 16, N-(2,6-Diphenyl-pyrimidin-4-yl)-butyramide]	17.6 ± 5.3
CC(C)CC(=O)Nc1cc(-c2ccccc2)nc(-c2ccccc2)n1 [Compound 18, N-(2,6-Diphenyl-pyrimidin-4-yl)-3-methyl-butyramide]	14.8 ± 2.7
CCC(CC)C(=O)Nc1cc(-c2ccccc2)nc(-c2ccccc2)n1 [Compound 19, N-(2,6-Diphenyl-pyrimidin-4-yl)-2-ethyl-butyramide]	6.35 ± 0.4
CCC(C)C(=O)Nc1cc(-c2ccccc2)nc(-c2ccccc2)n1 (stereo not drawn) [Compound 20, N-(2,6-Diphenyl-pyrimidin-4-yl)-2-methyl-butyramide]	2.22 ± 1.1

The next lines start with the values.

Ki [nM]	Structure (SMILES)
27.7 ± 6.2	CC(C)(C)C(=O)Nc1cc(-c2ccccc2)nc(-c2ccccc2)n1 [Compound 21, N-(2,6-Diphenyl-pyrimidin-4-yl)-2,2-dimethyl-propionamide]
8.75 ± 4.1	CC(C)(C)CC(=O)Nc1cc(-c2ccccc2)nc(-c2ccccc2)n1 [Compound 22, N-(2,6-Diphenyl-pyrimidin-4-yl)-3,3-dimethyl-butyramide]
6.49 ± 2.2	O=C(Nc1cc(-c2ccccc2)nc(-c2ccccc2)n1)C1CCC1 [Compound 23, Cyclobutanecarboxylic acid (2,6-diphenyl-pyrimidin-4-yl)-amide]
2.14 ± 0.07	O=C(Nc1cc(-c2ccccc2)nc(-c2ccccc2)n1)C1CCCC1 [Compound 24, Cyclopentanecarboxylic acid (2,6-diphenyl-pyrimidin-4-yl)-amide]
15.5 ± 8.4	O=C(Nc1cc(-c2ccccc2)nc(-c2ccccc2)n1)C1CCCCC1 [Compound 25, Cyclohexanecarboxylic acid (2,6-diphenyl-pyrimidin-4-yl)-amide]
